Laboratory results published in article PMC6838142, “Nano-Antagonist Alleviates Inflammation and Allows for MRI of Atherosclerosis” (Nanotheranostics, 2019).
“Also recorded” adds a separate entry of the source.

Assays:
[1] = tested on: nanoparticle-targeted cells in atherosclerotic plaque; assay: mRNA analysis of laser-captured nanoparticle-positive plaque areas; type: in vivo, mouse; details: single dose, 24 h, CCTV vs VTCC, 3-4 animals
Method: (§1) Twenty-four hours after nanoparticle injection (see above), mice were euthanized and abdominal aortas were isolated and embedded in Optimal Cutting Temperature compound. After cryotome-sectioning, resulting in 20-30 slides per mouse, 15 slides were sent to Ohio State laser capture microdissection core lab for capture and analysis. The rest of the slides were processed as follows: after fixation in methanol:acetone 50:50 at -20 °C, slides were hydrated in PBS, blocked for 30 min in fish serum (Aqua Block) and stained for 1 h with primary antibodies against F4/80 followed washing and staining with HRP-conjugated secondary antibody for 30 min. DAB peroxidase kit was then used as per manufacturer's instructions followed by mounting. DAB and antibody staining (but not wash steps) was omitted in slides designated for nanoparticle fluorescence visualization. Nanoparticles fluorescence was visualized with Zeiss 510 LSM-meta confocal microscope and 20x objective. DAB F4/80 staining was visualized with Nikon FN1 microscope and same power objective.

recombinant CCR2 protein = assay: CCR2 receptor binding of nanoparticles to immobilized recombinant CCR2; design: species or system human; details: recombinant CCR2 2 µg/mL coated; nanoparticles 4 h room temperature; fluorescence 550/620 nm
Method: A sandwich-type plate-based immunoassay was developed in-house to study CCR2 receptor binding. Black opaque plates (for fluorescence studies) or clear high protein binding plates (for absorbance studies) were coated with recombinant CCR2 protein at 2 µg/mL in PBS overnight at 4 °C. Plates were washed 5 times with PBS and treated as follows: for nanoparticles binding, varying concentrations of fluorescent nanoparticles or vehicle control (see above) in PBS were added to the opaque plates and incubated for 4 h at room temperature. For peptide competition/binding studies, recombinant human CCL2 was added in clear plates at varying concentrations in PBS simultaneously with a large excess of peptides (1 mM final concentration, dissolved in dimethylformamide) and incubated for 1 h at room temperature. All plates were washed 5 times with PBS and fluorescence in opaque plates was read at 550 nm excitation and 620 nm emissions. […] Clear plates were washed and incubated with 0.1 µg/mL streptavidin-HRP. Finally, clear plates were washed and incubated with SigmaFast OPD reagent in the presence of hydrogen peroxide-urea, as per the manufacturer's instructions. After 30 min incubation period at 37 °C, the plates were read at 450 nm on a multiwell plate reader as described above. Fluorescence emission values and OD at 450 nm were plotted against concentration using a 4-parametric fit.

NF-kB = assay: Nanoparticle screening: NFkB activation in RAW-Blue reporter cells; type: cell-based, mouse
Method: A schematic representation of nanoparticle screening is depicted in Supplementary Figure S4. Briefly, RAW-Blue NFkB reporter cells were cultured as per the manufacturer's recommendations. Cells were seeded and cultured overnight in black opaque 96-well plates with a clear bottom at 50,000 per well. Cells were then treated with 1 and 10 µM of nanoparticles containing 1% rhodamine and positive and negative controls (see below) for 30 min on ice followed by washing steps with cold PBS. Next, lipopolysaccharide (LPS) was added at 100 ng/mL and incubated for 6 h at 37 °C, following which the cells were washed again and incubated for 18 h at 37 °C in fresh medium. Next, 20 µL of supernatant was collected and assayed using SEAP detection reagent in a separate clear bottom 96-well plate as per Invivogen instructions (http://www.invivogen.com). Absorbance at OD 650 nm was recorded and was indicative of NFkB activation. In parallel, cells in the opaque plate were washed again and fluorescence was read at 550 nm excitation and 620 nm emission. This signal from rhodamine was indicative of nanoparticle uptake. […] All analysis was performed using Molecular Devices i3 multi-mode plate reader and SoftMax Pro software version 6.2 (Molecular Devices).

[2] = tested on: F4/80-positive plaque macrophages; assay: Immunohistochemistry / plaque macrophage co-staining; type: in vivo, mouse; details: mouse, in vivo
Method: as §1

BMDMs [3] = assay: CCL2-induced actin polymerization in BMDMs; type: cell-based; details: 6 h pre-treatment, 500 nM recombinant mouse CCL2; 5 µM; phalloidin staining
Method: Next, cells were washed with PBS and recombinant mouse CCL2 was added to a final concentration of 500 nM. Then, cells were incubated for varying times (indicated in Figure 2G), after which they were immediately placed on ice and washed 3 times with cold PBS. Actin polymerization was then visualized following staining with phalloidin Alexa Fluor 633, according to the manufacturer's instructions.

BMDMs [4] = assay: GSH/GSSG assay in LPS-primed BMDMs; type: cell-based, mouse; details: LPS-primed (100 ng/mL) BMDMs, 5 µM CCTV vs vehicle, 8 experiments
[5] = tested on: CCR2hiLy6Chi inflammatory cells in blood of ApoE-/- mice; assay: Flow cytometry of blood immune cells after injection; type: in vivo, mouse
Method: Twenty-four hours after nanoparticle injection (see above), mice were euthanized and whole blood was collected via cardiac puncture. The cells were separated from plasma via centrifugation at 2500 rpm for 25 min at 4 °C and white blood cells were isolated after lysis of red blood cells with ACK lysis buffer. The cells were resuspended in 1% FBS in PBS (FACS buffer) on ice and stained with fluorophore-conjugated antibodies detecting CD11b, CD11c, CCR2, and Ly6C (Supplementary Table S1) for 30 min at room temperature. Cells were washed with FACS buffer three times and one time with PBS, and then fixed in 2% paraformaldehyde in PBS, pH 7.4. Samples were run on a Becton Dickinson LSR II flow cytometer and cell surface expression analysis of indicated markers was performed using FlowJo software.

BMDMs [6] = assay: DCFDA ROS assay; type: cell-based, mouse; details: LPS (100 ng/mL) BMDMs, 12 experiments
Method: GSH /GSSG, lactate dehydrogenase (LDH) and DCFDA assays were performed according to the manufacturer's instructions. The assays were purchased from vendors as indicated in Supplemental Table S1.

CCTV
Arg1 mRNA in nanoparticle-targeted plaque cells [1]: slightly upregulated in CCTV-targeted cells, however this was not significant
Ccl2 mRNA in nanoparticle-targeted plaque cells [1]: downregulated
Il6 mRNA in nanoparticle-targeted plaque cells [1]: downregulated
binding to immobilized CCR2 (recombinant CCR2 protein): bound to immobilized recombinant receptor protein in a dose dependent manner; also recorded: significant, dose-dependent binding
NF-kB activity compared with dexamethasone (NF-kB; 10 µM nanoparticles vs Dex 1 mM, LPS 100 ng/mL): almost to the same level as that in cells treated with NF-kB inhibitor dexamethasone (Dex) at 1 mM
NF-kB activity (NF-kB; 1 and 10 µM nanoparticles, 30 min on ice, LPS 100 ng/mL 6 h, SEAP OD 650 nm): significantly downregulated NF-kB activity
co-staining with F4/80 in plaque [2]: co-stained with CCTV
actin polymerization (BMDMs [3]): significantly inhibited actin polymerization
GSH levels (BMDMs [4]): unable to restore GSH levels; also recorded: unaffected
GSSG levels (BMDMs [4]): unable to restore GSH levels or reduce GSSG; also recorded: unaffected
accumulation in CCR2-positive blood macrophage subpopulations ([5]; 100 mg/kg, 24 h, three ApoE-/- mice/group): selectively accumulated in macrophage subpopulations positive for CCR2
nanoparticle-positive CCR2hiLy6Chi cells ([5]; 100 mg/kg, 24 h, three ApoE-/- mice/group, vs VTCC): an increased number of these cells were CCTV positive compared to VTCC
number of macrophages that engulfed nanoparticles ([5]; Supplementary Figure S9, CCTV vs VTCC): not due to a different number of macrophages that engulfed nanoparticles
ROS production (BMDMs [6]): inhibited ROS production in response to LPS; also recorded: significantly blunted
